This note sets out measurements from patent publication US5270322A, “Imidazo[1,2-a]pyridines, pharmaceutical compositions containing these compounds and processes for preparing them” (Dr. Karl Thomae GmbH, priority 1992, dated 1993).

SMILES strings stand for the structures.

This assay has as its target T1, Angiotensin II-Receptor (Rattus norvegicus, UniProt P25095).
T1 construct: The tissue (rats lung) is homogenised in Tris-buffer; from tissue; host or cells: rat lung homogenate
T1 sequence (P25095 1-359): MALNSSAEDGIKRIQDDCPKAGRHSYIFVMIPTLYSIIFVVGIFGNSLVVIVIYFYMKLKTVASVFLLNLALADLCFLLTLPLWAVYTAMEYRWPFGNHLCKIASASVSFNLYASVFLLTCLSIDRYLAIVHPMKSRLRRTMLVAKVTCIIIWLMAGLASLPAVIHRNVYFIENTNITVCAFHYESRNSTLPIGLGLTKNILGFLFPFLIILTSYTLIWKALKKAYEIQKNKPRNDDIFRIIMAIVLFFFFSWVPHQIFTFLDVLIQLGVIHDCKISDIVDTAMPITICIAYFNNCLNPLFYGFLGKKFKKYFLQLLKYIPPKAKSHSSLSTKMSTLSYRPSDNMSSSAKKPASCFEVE
The assay is described as follows: Angiotensin II-Receptor Bonding. Type of assay: binding. As to conditions: rats lung homogenate; 50 pM [125I]-angiotensin II; 60 minutes at 37° C.; pH 7.40. The procedure:
Description of Method: Angiotensin II-Receptor Bonding
The tissue (rats lung) is homogenised in Tris-buffer (50 mMol Tris, 150 mMol NaCl, 5 mMol EDTA, pH 7.40) and centrifuged twice for 20 minutes at 20,000×g. The finished pellets are resuspended in incubating buffer [, (50 mMol Tris, 5 mMol MgC12, 0.2% BSA, pH 7.40) 1:75, based on the moist weight of the tissue. Each 0.1 ml of homogenate is incubated for 60 minutes at 37° C. with 50 pM [^125 I]-angiotensin II (NEN, Dreieich, FRG) with increasing concentrations of the test substance in a total volume of 0.25 ml. Incubation is ended by rapid filtration through glass fibre filter mats. The filters are each washed with 4 ml of ice cold buffer (25 mMol Tris, 2.5 mMol MgCl2, 0.1% BSA, pH 7.40). The bound radioactivity is measured using a gamma-counter. The corresponding IC50 value is obtained from the dose-activity curve.
What is called IC50 is the concentration needed to halve the response being measured. The low end stands for higher potency, the high end for lower potency. On to `CCc1cn2c(C(OC(C)=O)c3ccc(-c4ccccc4C(=O)O)cc3)ccc(C)c2n1` (racemic) [Substance B, (R,S)-2-ethyl-8-methyl-5-[α-(2'-carboxybiphenyl-4-yl)-α-acetoxy-methyl]imidazo[1,2-a]pyridine], for which the IC50 is 30 nM.
Turning to `CCc1cn2c(C(O)c3ccc(-c4ccccc4C(=O)O)cc3)ccc(C)c2n1` (racemic) [Substance A, (R,S)-2-ethyl-8-methyl-5-[α-(2'-carboxybiphenyl-4-yl)-α-hydroxy-methyl]imidazo[1,2-a]pyridine], the IC50 amounted to 46 nM.
The figure for `CCc1cn2c(C(OC(=O)NC3CCCCC3)c3ccc(-c4ccccc4C(=O)O)cc3)ccc(C)c2n1` (racemic) [Substance C, (R,S)-2-Ethyl-8-methyl-5-[α-(2'-carboxybiphenyl-4-yl)-α-cyclohexylaminocarbonyloxy-methyl]imidazo[1,2-a]pyridine] is 230 nM; for `CCCc1cn2c(C(O)c3ccc(-c4ccccc4C(=O)O)cc3)ccc(C)c2n1` (racemic) [Substance D, (R,S)-2-n-Propyl-8-methyl-5-[α-(2'-carboxybiphenyl-4-yl)-α-hydroxy-methyl]imidazo[1,2-a]pyridine-hydrate] it is 420 nM.
